Source: PubChem BioAssay AID1208 (EPA DSSTox, 2008)
Active and inactive are the calls of the source.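 The calls were made as follows: active = at least one rat sex group has a carcinogenic potency value and tumor site recorded; inconclusive = only rat studies were judged inadequate by the national testing program; inactive = no potency or tumor site, with negative rat experiments.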

Test system: rat chronic carcinogenicity bioassay, TD50
Assay: DSSTox (CPDBAS) Carcinogenic Potency Database Summary Rat Bioassay Results
Conditions: for outcome: TD50_Rat_Note: no positive results; for Potency: stronger effect = lower value
Summary of the method: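 The activity score maps log10(1/TD50_Rat_mmol) linearly onto 1–100; actives without a computed TD50, such as mixtures, receive 50. Source data are chronic rat carcinogenicity tests, using the most positive experiment for each sex.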

[1] = TargetSites_Rat_Female: no positive results
[2] = TD50_Rat_Note: TD50 is harmonic mean of more than one positive test, TargetSites_Rat_Female: nasal cavity

Structure (SMILES) | outcome [1] | other results
COc1cc(/C=C/C(=O)CC(=O)/C=C/c2ccc(O)c(OC)c2)ccc1O | inactive; no positive results | outcome: inactive; no positive results
CC(=O)OCc1ccccc1 | inactive; no positive results | –
CCN(CC)C(=O)c1cccc(C)c1 | inactive; no positive results | –
CC(C)CN(N=O)C(N)=O | – | Potency (TargetSites_Rat_Female: small intestine): 4.73 mg/kg/day
ClCCl | – | Potency (TD50_Rat_Note: TD50 is harmonic mean of more than one positive test, TargetSites_Rat_Female: mammary gland): 724 mg/kg/day
CCOC(=O)C(O)(c1ccc(Cl)cc1)c1ccc(Cl)cc1 | inactive; no positive results | –
NC(=S)NNC(N)=S | inactive; no positive results | –
O=[N+]([O-])c1ccc(Cl)c([N+](=O)[O-])c1 | – | outcome: inactive; no positive results
O=C1C=C(N2CC2)C(=O)C(N2CC2)=C1N1CC1 | – | Potency (TD50_Rat_Note: positive test results only by intraperitoneal or intravenous injection): 0.00504 mg/kg/day
FC(Cl)C(F)(F)F (centres undefined) | inactive | –
O=[N+]([O-])c1ccccc1 | – | Potency (TD50_Rat_Note: TD50 is harmonic mean of more than one positive test, TargetSites_Rat_Female: liver, uterus): 25.5 mg/kg/day
CN1C(C(=O)Nc2ccccn2)=C(O)c2ccccc2S1(=O)=O | – | outcome: inactive; no positive results
Cn1cnc([N+](=O)[O-])c1Sc1ncnc2nc[nH]c12 | inactive | –
Nc1ccc(-c2ccccc2)cc1O | inactive | –
O=S(=O)([O-])[O-].[O]=[V+2] | – | outcome: inactive; no positive results
CN(N=O)c1ccc(N=O)cc1 | – | Potency (TD50_Rat_Note: positive test results only by intraperitoneal or intravenous injection, no positive results are statistically significan): 1.3 mg/kg/day
Clc1c(Cl)c(Cl)c(Cl)c(Cl)c1Cl | – | Potency (TD50_Rat_Note: TD50 is harmonic mean of more than one positive test, harmonic mean of TD50 includes a value for upper 99% confidence li, TargetSites_Rat_Female: liver): 3.86 mg/kg/day
CCCCCCCCCCC(C)c1ccc(S(=O)(=O)O)cc1 (centres undefined) | inactive; no positive results | –
C=CCc1ccc(O)c(OC)c1 | inactive; no positive results | –
CCCCCC | inactive; no positive results | –
CCCCC(CC)COC(=O)c1ccccc1C(=O)OCC(CC)CCCC (centres undefined) | – | Potency (TD50_Rat_Note: TD50 is harmonic mean of more than one positive test, TargetSites_Rat_Female: liver): 716 mg/kg/day
Nc1ccccc1C(=O)O | inactive; no positive results | –
CN(C)c1ccc(N=NS(=O)(=O)O)cc1 | inactive; no positive results | –

Structure (SMILES) | outcome [1] | other results
Nc1cc(Cl)c(-c2cc(Cl)c(N)cc2Cl)cc1Cl | inactive; no positive results | –
O=S(=O)(O)c1ccc2c(N=Nc3ccc(S(=O)(=O)O)c4ccccc34)c(O)c(S(=O)(=O)O)cc2c1 | – | Potency (TD50_Rat_Note: TD50 is harmonic mean of more than one positive test, TargetSites_Rat_BothSexes: hematopoietic system): 1470 mg/kg/day
Oc1ccccc1 | inactive; no positive results | –
COc1ccc(N)c(OC)c1 | inactive; no positive results | –
C1OC1C1CO1 (centres undefined) | inactive | –
C=CCN(CC=C)N=O | – | Potency [2]: 33.9 mg/kg/day
CCSCCC(N)C(=O)O (centres undefined) | – | Potency (TD50_Rat_Note: TD50 is harmonic mean of more than one positive test, harmonic mean of TD50 includes a value for upper 99% confidence li): 9.76 mg/kg/day
CC(C)=CCl | – | Potency (TD50_Rat_Note: TD50 is harmonic mean of more than one positive test, TargetSites_Rat_Female: esophagus, nasal cavity, oral cavity, stomach): 31.8 mg/kg/day
O=NN1CCC(O)C1 (centres undefined) | – | Potency (TargetSites_Rat_BothSexes: all tumor bearing animals): 7.65 mg/kg/day
CN(C)C=O | inactive; no positive results | –
Cc1ccc(/C(=C\CN2CCCC2)c2ccccn2)cc1 | inactive; no positive results | –
CC(C)(c1ccc(O)cc1)c1ccc(O)cc1 | inactive; no positive results | –
Clc1ccc(-c2cccc(Cl)c2Cl)c(Cl)c1 | – | Potency (TD50_Rat_Note: TD50 is harmonic mean of more than one positive test, TD50_Rat_mmol was not calculated for this mixture, but Activiity S, TargetSites_Rat_Female: liver): 11.8 mg/kg/day
CN1CCC[C@H]1c1cccnc1 | inactive; no positive results | –
ClC1=C(Cl)[C@]2(Cl)[C@@H]3[C@@H]4C[C@@H]([C@H]5O[C@@H]45)[C@@H]3[C@@]1(Cl)C2(Cl)Cl | inactive; no positive results | –
O=C(O)CC(O)(CC(=O)O)C(=O)O | – | outcome: inactive; no positive results
CC(O)CO (centres undefined) | inactive; no positive results | –
COP(=S)(OC)Oc1ccc([N+](=O)[O-])cc1 | inactive; no positive results | –
Oc1c(Cl)c(Cl)c(Cl)c(Cl)c1Cl | inactive; no positive results | Potency (TargetSites_Rat_Female: liver): 13.1 mg/kg/day; Potency [1]: 59 mg/kg/day
c1ccc(OCC2CO2)cc1 (centres undefined) | – | Potency [2]: 44 mg/kg/day
O=Nc1ccc(NO)cc1 | – | Potency (TargetSites_Rat_Female: urinary bladder): 106 mg/kg/day
ClC(Cl)C(Cl)Cl | inactive; no positive results | –
Nc1cc([N+](=O)[O-])ccc1O | – | Potency [1]: 839 mg/kg/day
